Nine compounds from US20080207683A1, “BIARYL-S[…]-PYRAZOLO-PYRIDINE MODULATORS OF CATHEPSIN S” (priority 2007, published 2008) can be followed below.

The structures appear in SMILES notation.

The target in the first assay is T1, Human CatS (Homo sapiens, UniProt P25774).
T1 construct: made in house; host or cells: Sf9 insect cells (baculovirus vector pFB+HT)
T1 sequence (P25774 115-331): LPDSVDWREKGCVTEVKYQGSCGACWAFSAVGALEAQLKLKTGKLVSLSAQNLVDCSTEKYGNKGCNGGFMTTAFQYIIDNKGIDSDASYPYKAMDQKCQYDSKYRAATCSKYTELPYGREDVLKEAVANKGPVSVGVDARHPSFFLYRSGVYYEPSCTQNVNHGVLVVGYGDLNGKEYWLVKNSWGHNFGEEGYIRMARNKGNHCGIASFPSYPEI
As to the kind of experiment: CatS inhibition of hydrolysis of fluorescent substrate Z-Val-Val-Arg-AFC. The format is biochemical.
Details: not given
As to the method: Human CatS was cloned into pFB+HT (from Stratagene clone), expressed in Sf9 cells, and purified over a Ni column. Fractions were concentrated and activated at pH 4.0 for 6 hr and then purified over a thiopropylsepharose column and eluted with 1×TBS, 500 mM NaCl, 1 mM EDTA, 25 mM DTT pH 7.6. Glycerol (50%) was added in a 1:1 (vol/vol) ratio (25% glycerol final) and protein was stored at −80° C. in 5 μL aliquots. […] The increase in fluorescence over time was monitored using λexcitation=400 nm and λemission=505 nm.
In equation 1, v is the initial rate measured in the presence of [I]0, the inhibitor concentration, using an enzyme concentration [E]0. v0 is the initial rate measured in the absence of inhibitor.
With `Cc1ccc2[nH]c([C@H](C)NC(=O)c3cccc(-c4cc(-c5nn(CCCN6CCCC6)c6c5CN(S(C)(=O)=O)CC6)ccc4Cl)c3)nc2c1` [Example 20, (S)-2′-Chloro-5′-[5-methanesulfonyl-1-(3-pyrrolidin-1-yl-propyl)-4,5,6,7-tetrahydro-1H-pyrazolo[4,3-c]pyridin-3-yl]-biphenyl-3-carboxylic acid [1-(5-methyl-1H-benzoimidazol-2-yl)-ethyl]-amide], the Ki was 188 nM.

`COc1ccc(CNC(=O)c2cccc(-c3cc(-c4nn(CCCN5CCCC5)c5c4CN(S(C)(=O)=O)CC5)ccc3Cl)c2)cc1` [Example 15, 2′-Chloro-5′-[5-methanesulfonyl-1-(3-pyrrolidin-1-yl-propyl)-4,5,6,7-tetrahydro-1H-pyrazolo[4,3-c]pyridin-3-yl]-biphenyl-3-carboxylic acid 4-methoxy-benzylamide] showed a Ki of 450 nM.

The same assay, now with this note: apparent Ki, Morrison equation fit of initial rates; 10 μM Z-Val-Val-Arg-AFC, pH 5.0, 1.5 nM CatS; read-out: CatS Ki^app.
Take `CS(=O)(=O)N1CCc2c(c(-c3ccc(Cl)c(-c4cccc(C(=O)NCc5nc6ccccc6s5)c4)c3)nn2CCCN2CCC(O)C2)C1` (stereo not drawn) [Example 30, 2′-Chloro-5′-{1-[3-(3-hydroxy-pyrrolidin-1-yl)-propyl]-5-methanesulfonyl-4,5,6,7-tetrahydro-1H-pyrazolo[4,3-c]pyridin-3-yl}-biphenyl-3-carboxylic acid (benzothiazol-2-ylmethyl)-amide]: the Ki was found to be 325 nM. The same measure, in the same setting: as for `Cc1ccc(NCCNC(=O)c2cccc(-c3cc(-c4nn(CCCN5CCC(O)C5)c5c4CNCC5)ccc3Cl)c2)cc1C` (stereo not drawn) [Example 42, 2′-Chloro-5′-{1-[3-(3-hydroxy-pyrrolidin-1-yl)-propyl]-4,5,6,7-tetrahydro-1H-pyrazolo[4,3-c]pyridin-3-yl}-biphenyl-3-carboxylic acid [2-(3,4-dimethyl-phenylamino)-ethyl]-amide], the figure is 41.7 nM. The same measure, in the same setting: with `CC(C)(C)c1csc(CNC(=O)c2cccc(-c3cc(-c4nn(CCCN5CCCC5)c5c4CN(S(C)(=O)=O)CC5)ccc3Cl)c2)n1` [Example 22, 2′-Chloro-5′-[5-methanesulfonyl-1-(3-pyrrolidin-1-yl-propyl)-4,5,6,7-tetrahydro-1H-pyrazolo[4,3-c]pyridin-3-yl]-biphenyl-3-carboxylic acid (4-tert-butyl-thiazol-2-ylmethyl)-amide] the figure was 75.4 nM. For the compound `COc1ccc(CNC(=O)c2cccc(-c3cc(-c4nn(CCCN5CCCC5)c5c4CN(C(C)=O)CC5)ccc3Cl)c2)cc1` [Example 41, 5′-[5-Acetyl-1-(3-pyrrolidin-1-yl-propyl)-4,5,6,7-tetrahydro-1H-pyrazolo[4,3-c]pyridin-3-yl]-2′-chloro-biphenyl-3-carboxylic acid 4-methoxy-benzylamide], the Ki came out at 430 nM. Still for that read-out and setting: as for `CS(=O)(=O)N1CCc2c(c(-c3ccc(Cl)c(-c4cccc(C(=O)NCc5nc6cc(F)ccc6s5)c4)c3)nn2CCCN2CCCC2)C1` [Example 25, 2′-Chloro-5′-[5-methanesulfonyl-1-(3-pyrrolidin-1-yl-propyl)-4,5,6,7-tetrahydro-1H-pyrazolo[4,3-c]pyridin-3-yl]-biphenyl-3-carboxylic acid (5-fluoro-benzothiazol-2-ylmethyl)-amide], the figure is 117 nM; as for `CS(=O)(=O)N1CCc2c(c(-c3ccc(Cl)c(-c4cccc(C(=O)NCc5nc6cc(Cl)ccc6[nH]5)c4)c3)nn2CCCN2CCCC2)C1` [Example 21, 2′-Chloro-5′-[5-methanesulfonyl-1-(3-pyrrolidin-1-yl-propyl)-4,5,6,7-tetrahydro-1H-pyrazolo[4,3-c]pyridin-3-yl]-biphenyl-3-carboxylic acid (5-chloro-1H-benzoimidazol-2-ylmethyl)-amide], 70.3 nM.

As to `C[C@@H](NC(=O)c1cccc(-c2cc(-c3nn(CCCN4CCCC4)c4c3CN(S(C)(=O)=O)CC4)ccc2Cl)c1)c1nc(-c2ccccc2)cs1` [Example 24, (R)-2′-Chloro-5′-[5-methanesulfonyl-1-(3-pyrrolidin-1-yl-propyl)-4,5,6,7-tetrahydro-1H-pyrazolo[4,3-c]pyridin-3-yl]-biphenyl-3-carboxylic acid [1-(4-phenyl-thiazol-2-yl)-ethyl]-amide], the Ki came to 175 nM.
